Test results as given in patent EP4635952A1, “SOLID FORM OF N-SUBSTITUTED PHENYLSULFONAMIDE COMPOUND” (Shanghai Leado Pharmatech Co. Ltd., priority 2022, dated 2024).
Structures can show the parent of a compound that is named as a salt. Where two headings read alike, the source gives them in different places.

Assays:
Type in all cases: physicochemical
[1] = Solid-state stability (HPLC purity and XRPD crystal form on storage); details: for Purity (area %) / Initial purity (area %): HPLC; for Initial purity (area %): starting sample before storage
Procedure: About 10 mg of each solid form of the compound was weighed and added to the HPLC vial, respectively, the bottleneck was sealed with a sealing film, and 10 small holes were made on the film. The vial was placed in 25° C/60% RH and 40° C/75% RH environment for 4 weeks, samples were taken in the 1st week, the 2rd week and the 4th week respectively, the purity (by HPLC analysis) and crystal form (by X ray powder diffraction analysis) of the sample were investigated. […]

[2] = Approximate solubility in purified water
Procedure: To determine the approximate solubility, the corresponding solid form sample was added to a 3 mL glass vial. Purified water was incrementally introduced (50, 50, 200, and 700 µL) while vortexing and ultrasonically agitating to facilitate dissolution. […] Solvent addition was halted either when full dissolution was achieved or when the total water volume reached 1 mL. The approximate solubility was then calculated based on the final solvent volume used.

[3] = Hygroscopicity by dynamic moisture absorption (DVS); details: 25°C/80% RH; for moisture adsorption: DVS, 0% RH-95% RH adsorption curve; for hygroscopicity classification: criteria of 2015 edition of the Chinese Pharmacopoeia (Guidelines for Drug Hygroscopicity Test)
Procedure: Dynamic moisture adsorption (DVS) analysis: the instrument is a DVS Intrinsic produced by SMS company (Surface Measurement Systems); temperature, 25° C.; carrier gas, flow rate: nitrogen, 200 mL/min; mass change per unit time: 0.002%/min; relative humidity range: 0%RH-95%RH.
Dynamic moisture absorption (DVS) was used to test their hygroscopicity.

[4] = Dynamic solubility in biorelevant media SGF, FaSSIF or water; details: 37°C, dosed at 10 mg/mL, 1-24 hours, Figure 31
Procedure: The dynamic solubility of fumarate crystal form B, hydrochloride crystal form C, sulfate crystal form D, succinate crystal form E, malate crystal form F, and free crystal form A was assessed at 37°C in biorelevant media SGF, FaSSIF or water. All samples were dosed at 10 mg/mL in each solvent. The samples were sealed and mounted on a rotating disk rotating at 25 rpm, and the rotating disk was placed in a 37° C. incubator. Samples were taken at time points 1, 2, 4, and 24 hours of equilibration, and the filtrate was separated and tested concentration by HPLC and pH, while isolated solids were characterized by XRPD.

[5] = 25°C/60% RH and 40°C/75% RH, 4 weeks

Structure (SMILES) | Purity (area %) ([1]; 25°C /60%RH/open, 1 week) | Purity (area %) ([1]; 25°C /60%RH/open, 2 weeks) | Purity (area %) ([1]; 25°C /60%RH/open, 4 weeks) | Purity (area %) ([1]; 40°C /75%RH/open, 1 week) | Purity (area %) ([1]; 40°C /75%RH/open, 2 weeks) | Purity (area %) ([1]; 40°C /75%RH/open, 4 weeks) | Initial purity (area %) [1] | Solubility [2] | moisture adsorption [3] | hygroscopicity classification [3] | dynamic solubility ([4]; FaSSIF) | dynamic solubility ([4]; water) | HPLC purity [1, 5] | crystal form (XRPD) before and after placement [1, 5] | Solubility ([2]; listed as Free form crystal A)
CNCc1ccc(NS(=O)(=O)c2ccsc2)c(-c2ccco2)c1 [Malonate crystal form K, N-(2-(furan-2-yl)-4-((methylamino)methyl)phenyl) thiophene-3-sulfonamide] | 98.64 area % | 98.61 area % | 98.59 area % | 98.64 area % | 98.58 area % | 98.46 area % | 98.64 area % | – | – | – | – | – | – | – | –
CNCc1ccc(NS(=O)(=O)c2ccsc2)c(-c2ccco2)c1 [Phosphate crystal form G, N-(2-(furan-2-yl)-4-((methylamino)methyl)phenyl)thiophene-3-sulfonamide] | 98.11 area % | 98.09 area % | 98.04 area % | 98.11 area % | 98.06 area % | 98.01 area % | 98.11 area % | – | – | – | – | – | – | – | –
CNCc1ccc(NS(=O)(=O)c2ccsc2)c(-c2ccco2)c1 [Pyroglutamate crystal form I, N-(2-(furan-2-yl)-4-((methylamino)methyl)phenyl)thiophene-3-sulfonamide] | 98.61 area % | 98.58 area % | 98.57 area % | 98.61 area % | 98.54 area % | 98.32 area % | 98.61 area % | S>38.0 mg/mL | – | – | – | – | – | – | –
CNCc1ccc(NS(=O)(=O)c2ccsc2)c(-c2ccco2)c1 [Tartrate crystal form H, N-(2-(furan-2-yl)-4-((methylamino)methyl)phenyl)thiophene-3-sulfonamide] | 98.71 area % | 98.62 area % | 98.6 area % | 98.7 area % | 98.6 area % | 98.53 area % | 98.71 area % | – | – | – | – | – | – | – | –
CNCc1ccc(NS(=O)(=O)c2ccsc2)c(-c2ccco2)c1 [benzene sulfonate crystal form J, N-(2-(furan-2-yl)-4-((methylamino)methyl)-phenyl)thiophene-3-sulfonamide] | 98.87 area % | 98.85 area % | 98.82 area % | 98.87 area % | 98.82 area % | 98.79 area % | 98.87 area % | – | – | – | – | – | – | – | –
CNCc1ccc(NS(=O)(=O)c2ccsc2)c(-c2ccco2)c1 [free crystal form A, N-(2-(furan-2-yl)-4-((methylamino)methyl)phenyl)thiophene-3-sulfonamide] | 98.18 area % | 98.14 area % | 98.1 area % | 98.19 area % | 98.2 area % | 98.13 area % | 98.11 area % | – | 1.6% | slightly hygroscopic | negligible dissolution | negligible dissolution | did not decrease significantly | no detectable crystalline phase changes | S<2.0 mg/mL
CNCc1ccc(NS(=O)(=O)c2ccsc2)c(-c2ccco2)c1 [fumarate crystal form B, N-(2-(furan-2-yl)-4-((methylamino)methyl)phenyl)thiophene-3-sulfonamide] | 98.53 area % | 98.47 area % | 98.57 area % | 98.4 area % | 98.5 area % | 98.52 area % | 98.55 area % | – | 0.2% | slightly hygroscopic | – | – | – | – | –
CNCc1ccc(NS(=O)(=O)c2ccsc2)c(-c2ccco2)c1 [hydrochloride crystal form C, N-(2-(furan-2-yl)-4-((methylamino)methyl)phenyl)thiophene-3-sulfonamide] | 98.97 area % | 98.92 area % | 98.87 area % | 99.02 area % | 98.9 area % | 99 area % | 99.02 area % | – | 5.5% | hygroscopic | – | – | – | – | –
CNCc1ccc(NS(=O)(=O)c2ccsc2)c(-c2ccco2)c1 [malate crystal form F, N-(2-(furan-2-yl)-4-((methylamino)methyl)phenyl)thiophene-3-sulfonamide] | 98.72 area % | 98.7 area % | 98.79 area % | 98.74 area % | 98.75 area % | 98.68 area % | 98.72 area % | – | 1.4% | slightly hygroscopic | – | – | – | – | –
CNCc1ccc(NS(=O)(=O)c2ccsc2)c(-c2ccco2)c1 [succinate crystal form E, N-(2-(furan-2-yl)-4-((methylamino)methyl)phenyl)thiophene-3-sulfonamide] | 98.92 area % | 98.86 area % | 98.94 area % | 98.92 area % | 98.72 area % | 98.98 area % | 98.82 area % | – | 0.6% | slightly hygroscopic | – | – | – | – | –
CNCc1ccc(NS(=O)(=O)c2ccsc2)c(-c2ccco2)c1 [sulfate crystal form D, N-(2-(furan-2-yl)-4-((methylamino)methyl)phenyl)thiophene-3-sulfonamide] | 98.74 area % | 98.65 area % | 98.78 area % | 98.76 area % | 98.65 area % | 98.78 area % | 98.77 area % | – | 1.3% | slightly hygroscopic | – | – | – | – | –
